Measured values as given in patent publication US20050143336A1 (priority 2003, published 2005).

Tests used:
[1] = test system: FUS1 protein expression in the lungs; conditions: naproxen 15 mg/kg orally 2 hour prior to i.v. DOTAP:Chol-FUS1 complex vs complex alone
Experimental: In vivo treatment of immunocompetent animals by intravenous injection of DOTAP:Cholesterol-FUS1 complex. Female C3H mice were divided into 3 groups (n=12/group). […] Lung tissues were later homogenized, and total protein lysates prepared. Protein concentration in the lysate were determined by the BCA method and analyzed for FUS1 expression by western blot analysis. FUS1 protein was detected using a anti-FUS1 antibody. Untreated animals served as controls.

[2] = 15 mg/kg orally
Experimental: At indicated times after injection, blood and organ was collected at different time points. TNF-α, IL-6, IL-1a and IFN-γ levels in serum (C) and TNF-α, IL-6 (D) in organs were determined using specific immunoassay kit. Data represent means±SD.
Animals were euthanized at 2, 4, 6, and 15 hours after treatment, and blood was collected. Blood samples were stored at −80° C. until all samples were collected. They were then submitted to the Drug Analysis Core Facility at M.D. Anderson Cancer Center.

[3] = test system: proinflammatory cytokines (TNF, IL-1, IL-6, IFN-γ); assay type: in vivo, C3H mice
Experimental: In vivo treatment of immunocompetent animals by intravenous injection of DOTAP:Cholesterol-FUS1 complex. Female C3H mice were divided into 2 groups (n=15/group). […] Complexes were injected intravenously via the tail vein using a total volume of 200 μl. […] Blood from animals in all groups were collected at 2, 4, 6, and 15 h after injection of liposome-DNA complex, and analyzed for proinflammatory cytokines (TNF, IL-1, IL-6, IFN-γ) by ELISA (R&D Systems).

[4] = test system: serum TNF-α, IL-6, Il-1α and IFN-γ; assay: Serum cytokine profile after FUS1-nanoparticle with or without naproxen (ELISA); assay type: in vivo, C3H mice; conditions: naproxen 15 mg/kg orally pretreatment
Experimental: (§1) Cytokine profiles, Organ toxicity and Signalling molecules in C3H mice. To determine the cytokine profile, organ toxicity, signaling molecules responsible for inflammation, experiments were performed using immunocompetent female C3H mice. […] The amount of FUS1 plasmid injected was 100 μg. Serum and organ cytokine levels were determined by ELISA for murine TNF-α and murine Il-6. At indicated times after injection, blood was obtained via aspiration after right heart puncture. The blood was allowed to stand for 4 hours at 4° C. and then was centrifuged twice at 15,000 g for 10 minutes at 4° C. The supernatants (serum) were kept at −80° C. until used. Cytokine concentrations were quantified using specific ELISA kits (R&D systems) according to manufacturer's instructions. Organs were collected at 2, 4, and 15 h and were snap-frozen in liquid nitrogen and stored at […] until time of ELISA and Western blot analysis. At the time of ELISA, organs were slowly thawed on ice. The lung, liver and spleen was homogenized in 750 μl PBS containing a cocktail of protease inhibitors using a tissue homogenizer. The cytoplasmic fraction was isolated as the supernatant fraction following centrifugation at 15,000 g for 20 min at 4° C. The supernatant was used for the determination of TNF-α and IL-6 were quantitated by ELISA kits purchased from R&D Sytems and Biosource.fraction.

[5] = test system: TNF-α, IL-6 in lungs, liver and spleen; assay: Organ cytokine levels (lungs, liver, spleen) after FUS1-nanoparticle with or without naproxen (ELISA); assay type: in vivo, C3H mice; conditions: naproxen 15 mg/kg orally pretreatment
Experimental: as §1

[6] = test system: NFκB and STAT3 DNA binding; assay: Electrophoretic mobility shift assay of lung nuclear extracts for NFκB and STAT3; assay type: in vivo, C3H mice; conditions: in the presence of naproxen
Experimental: Electrophoretic mobility shift assay. […] Santa Cruz Biotechnology, Santa Cruz, Calif.) and NF-κB consensus oligonucleotide […] These probes were end-labelled with [γ-^32P]ATP(3000 Ci/mmol at 10 mCi/ml; Amersham Biosciences, Sunnyvale, Calif.). DNA binding reactions were performed at room temperature in a 25-μl reaction mixture containing 6-μl of nuclear extract and 5 μl of 5× binding buffer (20% (w/v) Ficoll, 50 mM HEPES (pH 7.9), 5 mM EDTA, 5 mM DTT). […] Samples were electrophoresed through 5.5% polyacrylamide gels in 0.5×TBE at 160 V for 3 h, dried under vacuum, and exposed to X-ray film after overnight expose with hyperfilm at -80° C. The gel was then dried and subjected to autoradiography. […] The minced tissue was homogenized using a Dounce homogenizer and centrifuged at 14,000 rpm at 4° C. for 10 min. […] The supernatant (nuclear extract) was collected and stored at -80° C. until use. The protein concentrationm was measured by the method of Bradford with BSA as the standard. […] Briefly, Double-stranded oligonucleotides consensus NFκB (Promega) were end-labelled with [γ-^32P]-ATP using T4 polynucleotide kinase. […] The bands were visualized by autoradiography.

[7] = test system: TNF-α, IL-6 and PGE2 production in RAW 264.7 cells; assay: Inflammatory cytokines production assay in RAW 264.7 macrophage cells; assay type: cell-based, Mouse; conditions: RAW 264.7, naproxen 0.5 mM before FUS1-nanoparticle
Experimental: The following day, tissue culture medium was replaced with fresh 0.2% medium and incubated overnight at 37° C. and 5% CO2. […] Assay was performed according to manufacturer's protocol.

COc1ccc2cc([C@H](C)C(=O)O)ccc2c1 [Naproxen, naproxen]
FUS1 protein expression in the lungs [1]: No significant differences
maximum levels of naproxen in the blood [2]: 3.5 μg/200 μl of blood
time by which naproxen reached baseline levels [2]: ≤ 15 h
reduction in all of the cytokine levels ([3]; naproxen 15 mg/kg 2 hour before DOTAP:Chol-FUS1 complex (100 μg DNA) i.v., serum): 50%
proinflammatory cytokine production, effect of naproxen ([3]; naproxen 15 mg/kg before complex): significant suppression of proinflammatory cytokine production
serum TNF-α, IL-6, Il-1α and IFN-γ levels induced by FUS1-nanoparticle [4]: significantly inhibited
TNF-α, IL-6 levels in lungs, liver and spleen [5]: significantly inhibited
activation of NFκB and STAT3 in lung [6]: suppressed
production of TNF-α, IL-6 and PGE2 [7]: suppressed
